Measurements taken from ChEMBL document CHEMBL1152994, “Plasmid-mediated carbapenem-hydrolyzing beta-lactamase KPC-2 in Klebsiella pneumoniae isolate from Greece” (2008).
Values after ≈ are worked out from the molar mass of the structure shown.

Tested on: Klebsiella pneumoniae
Assay: Antibacterial activity against Klebsiella pneumoniae Greece producing KPC-2 beta-lactamase by E test method
Format: functional

| Molecule | MIC [µg/mL] |
| --- | --- |
| CN(C)c1cc(NC(=O)CNC(C)(C)C)c(O)c2c1C[C@H]1C[C@H]3[C@H](N(C)C)C(O)=C(C(N)=O)C(=O)[C@@]3(O)C(O)=C1C2=O [TIGECYCLINE] | 3 (≈ 5.12 µM) |
| CC1(C)S[C@@H]2[C@H](NC(=O)[C@H](N)c3ccc(O)cc3)C(=O)N2[C@H]1C(=O)O [AMOXICILLIN] | > 256 |
| CO/N=C(\C(=O)N[C@@H]1C(=O)N2C(C(=O)O)=C(COC(C)=O)CS[C@H]12)c1csc(N)n1 [CEFOTAXIME] | > 32 |
| C[C@@H](O)[C@H]1C(=O)N2C(C(=O)O)=C(SCCNC=N)C[C@H]12 [IMIPENEM ANHYDROUS] | 12 (≈ 40.1 µM) |
| CO/N=C(\C(=O)N[C@@H]1C(=O)N2C(C(=O)[O-])=C(C[N+]3(C)CCCC3)CS[C@H]12)c1csc(N)n1 [CEFEPIME] | > 256 |
| CC(=O)OCC1=C(C(=O)O)N2C(=O)[C@@H](NC(=O)Cc3cccs3)[C@H]2SC1 [CEPHALOTHIN] | > 256 |
| GENTAMICIN | 1.5 |
| CCN1CCN(C(=O)N[C@@H](C(=O)N[C@@H]2C(=O)N3[C@@H]2SC(C)(C)[C@@H]3C(=O)O)c2ccccc2)C(=O)C1=O [PIPERACILLIN] | > 256 |
| COLISTIN | 128 |
| C[C@@H](O)[C@H]1C(=O)N2C(C(=O)O)=C(S[C@@H]3CN[C@H](C(=O)N(C)C)C3)[C@H](C)[C@H]12 [MEROPENEM] | 6 (≈ 15.6 µM) |
| CC1(C)S[C@@H]2[C@H](NC(=O)[C@H](C(=O)O)c3ccsc3)C(=O)N2[C@H]1C(=O)O [TICARCILLIN] | > 256 |
| CC(C)(O/N=C(\C(=O)N[C@@H]1C(=O)N2C(C(=O)[O-])=C(C[n+]3ccccc3)CS[C@H]12)c1csc(N)n1)C(=O)O [CEFTAZIDIME] | > 256 |
| C[C@H]1[C@H](NC(=O)/C(=N\OC(C)(C)C(=O)O)c2csc(N)n2)C(=O)N1S(=O)(=O)O [AZTREONAM] | > 256 |
| CO[C@@]1(NC(=O)Cc2cccs2)C(=O)N2C(C(=O)O)=C(COC(N)=O)CS[C@@H]21 [CEFOXITIN] | 64 (≈ 150 µM) |
| C[C@@H](O)[C@H]1C(=O)N2C(C(=O)O)=C(S[C@@H]3CN[C@H](C(=O)Nc4cccc(C(=O)O)c4)C3)[C@H](C)[C@H]12 [ERTAPENEM] | 12 (≈ 25.2 µM) |

Tested on: Escherichia coli
Assay: Antibacterial activity against Escherichia coli J53 expressing Klebsiella pneumoniae Greece blaKPC-2 gene by E test method
Format: functional

| Molecule | MIC [µg/mL] |
| --- | --- |
| CN(C)c1cc(NC(=O)CNC(C)(C)C)c(O)c2c1C[C@H]1C[C@H]3[C@H](N(C)C)C(O)=C(C(N)=O)C(=O)[C@@]3(O)C(O)=C1C2=O [TIGECYCLINE] | 0.5 (≈ 0.854 µM) |
| CC1(C)S[C@@H]2[C@H](NC(=O)[C@H](N)c3ccc(O)cc3)C(=O)N2[C@H]1C(=O)O [AMOXICILLIN] | > 256 |
| CO/N=C(\C(=O)N[C@@H]1C(=O)N2C(C(=O)O)=C(COC(C)=O)CS[C@H]12)c1csc(N)n1 [CEFOTAXIME] | 4 (≈ 8.78 µM) |
| C[C@@H](O)[C@H]1C(=O)N2C(C(=O)O)=C(SCCNC=N)C[C@H]12 [IMIPENEM ANHYDROUS] | 1.5 (≈ 5.01 µM) |
| CO/N=C(\C(=O)N[C@@H]1C(=O)N2C(C(=O)[O-])=C(C[N+]3(C)CCCC3)CS[C@H]12)c1csc(N)n1 [CEFEPIME] | 1.5 (≈ 3.12 µM) |
| CC(=O)OCC1=C(C(=O)O)N2C(=O)[C@@H](NC(=O)Cc3cccs3)[C@H]2SC1 [CEPHALOTHIN] | > 256 |
| GENTAMICIN | 0.064 |
| CCN1CCN(C(=O)N[C@@H](C(=O)N[C@@H]2C(=O)N3[C@@H]2SC(C)(C)[C@@H]3C(=O)O)c2ccccc2)C(=O)C1=O [PIPERACILLIN] | 128 (≈ 247 µM) |
| COLISTIN | 0.38 |
| C[C@@H](O)[C@H]1C(=O)N2C(C(=O)O)=C(S[C@@H]3CN[C@H](C(=O)N(C)C)C3)[C@H](C)[C@H]12 [MEROPENEM] | 0.38 (≈ 0.991 µM) |
| CC1(C)S[C@@H]2[C@H](NC(=O)[C@H](C(=O)O)c3ccsc3)C(=O)N2[C@H]1C(=O)O [TICARCILLIN] | > 256 |
| CC(C)(O/N=C(\C(=O)N[C@@H]1C(=O)N2C(C(=O)[O-])=C(C[n+]3ccccc3)CS[C@H]12)c1csc(N)n1)C(=O)O [CEFTAZIDIME] | 4 (≈ 7.32 µM) |
| C[C@H]1[C@H](NC(=O)/C(=N\OC(C)(C)C(=O)O)c2csc(N)n2)C(=O)N1S(=O)(=O)O [AZTREONAM] | 16 (≈ 36.7 µM) |
| CO[C@@]1(NC(=O)Cc2cccs2)C(=O)N2C(C(=O)O)=C(COC(N)=O)CS[C@@H]21 [CEFOXITIN] | 4 (≈ 9.36 µM) |
| C[C@@H](O)[C@H]1C(=O)N2C(C(=O)O)=C(S[C@@H]3CN[C@H](C(=O)Nc4cccc(C(=O)O)c4)C3)[C@H](C)[C@H]12 [ERTAPENEM] | 0.38 (≈ 0.799 µM) |

Biological target: T1, Class A carbapenemase (Klebsiella pneumoniae) (UniProt A9LM97)
T1 sequence (whole entry): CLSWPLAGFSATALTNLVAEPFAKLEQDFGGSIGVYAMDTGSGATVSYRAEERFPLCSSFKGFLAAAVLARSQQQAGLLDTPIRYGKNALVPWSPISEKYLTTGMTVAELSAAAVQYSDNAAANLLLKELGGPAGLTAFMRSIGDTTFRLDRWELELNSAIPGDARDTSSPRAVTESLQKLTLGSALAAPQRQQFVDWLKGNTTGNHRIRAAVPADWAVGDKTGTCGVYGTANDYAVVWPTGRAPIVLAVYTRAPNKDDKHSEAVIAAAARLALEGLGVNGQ
Assay: Activity at Klebsiella pneumoniae Greece Carbapenem-Hydrolyzing-Lactamase KPC-2 assessed per mg of total protein by spectrophotometrically

| Molecule | Activity [µmol] |
| --- | --- |
| C[C@@H](O)[C@H]1C(=O)N2C(C(=O)O)=C(SCCNC=N)C[C@H]12 [IMIPENEM ANHYDROUS] | 0.2 |
| C[C@@H](O)[C@H]1C(=O)N2C(C(=O)O)=C(S[C@@H]3CN[C@H](C(=O)N(C)C)C3)[C@H](C)[C@H]12 [MEROPENEM] | 0.06 |
| C[C@@H](O)[C@H]1C(=O)N2C(C(=O)O)=C(S[C@@H]3CN[C@H](C(=O)Nc4cccc(C(=O)O)c4)C3)[C@H](C)[C@H]12 [ERTAPENEM] | 0.05 |

Tested on: Escherichia coli
Assay: Antibacterial activity against Escherichia coli J53 by E test method
Format: functional

| Molecule | MIC [µg/mL] |
| --- | --- |
| CN(C)c1cc(NC(=O)CNC(C)(C)C)c(O)c2c1C[C@H]1C[C@H]3[C@H](N(C)C)C(O)=C(C(N)=O)C(=O)[C@@]3(O)C(O)=C1C2=O [TIGECYCLINE] | 0.5 (≈ 0.854 µM) |
| CC1(C)S[C@@H]2[C@H](NC(=O)[C@H](N)c3ccc(O)cc3)C(=O)N2[C@H]1C(=O)O [AMOXICILLIN] | 4 (≈ 10.9 µM) |
| CO/N=C(\C(=O)N[C@@H]1C(=O)N2C(C(=O)O)=C(COC(C)=O)CS[C@H]12)c1csc(N)n1 [CEFOTAXIME] | 0.06 (≈ 0.132 µM) |
| CO/N=C(\C(=O)N[C@@H]1C(=O)N2C(C(=O)[O-])=C(C[N+]3(C)CCCC3)CS[C@H]12)c1csc(N)n1 [CEFEPIME] | 0.03 (≈ 0.0624 µM) |
| CC(=O)OCC1=C(C(=O)O)N2C(=O)[C@@H](NC(=O)Cc3cccs3)[C@H]2SC1 [CEPHALOTHIN] | 1 (≈ 2.52 µM) |
| GENTAMICIN | 0.064 |
| CCN1CCN(C(=O)N[C@@H](C(=O)N[C@@H]2C(=O)N3[C@@H]2SC(C)(C)[C@@H]3C(=O)O)c2ccccc2)C(=O)C1=O [PIPERACILLIN] | 1 (≈ 1.93 µM) |
| COLISTIN | 0.38 |
| C[C@@H](O)[C@H]1C(=O)N2C(C(=O)O)=C(S[C@@H]3CN[C@H](C(=O)N(C)C)C3)[C@H](C)[C@H]12 [MEROPENEM] | 0.03 (≈ 0.0782 µM) |
| CC1(C)S[C@@H]2[C@H](NC(=O)[C@H](C(=O)O)c3ccsc3)C(=O)N2[C@H]1C(=O)O [TICARCILLIN] | 2 (≈ 5.2 µM) |
| CC(C)(O/N=C(\C(=O)N[C@@H]1C(=O)N2C(C(=O)[O-])=C(C[n+]3ccccc3)CS[C@H]12)c1csc(N)n1)C(=O)O [CEFTAZIDIME] | 0.06 (≈ 0.11 µM) |
| CO[C@@]1(NC(=O)Cc2cccs2)C(=O)N2C(C(=O)O)=C(COC(N)=O)CS[C@@H]21 [CEFOXITIN] | 2 (≈ 4.68 µM) |
| C[C@@H](O)[C@H]1C(=O)N2C(C(=O)O)=C(S[C@@H]3CN[C@H](C(=O)Nc4cccc(C(=O)O)c4)C3)[C@H](C)[C@H]12 [ERTAPENEM] | 0.03 (≈ 0.0631 µM) |
